Reference: patent US20220275387A1, “TRANSCRIPTION FACTOR NtERF221 AND METHODS OF USING THE SAME” (University of Virginia Patent Foundation, priority 2019, published 2022)
Entries after “also recorded” stand apart in the source; their conditions may differ.

Experiments:
[1] = system: NtAO, NtODC, NtPMT, NtQPT, and NtQS; experiment: RT-qPCR of nicotine biosynthesis structural genes in transgenic tobacco seedlings; format: in vivo, Nicotiana tabacum; conditions: two-week-old seedlings, 100 μM MeJA for 8 hours, normalized to NtEF-1α
Protocol: (§1) Plant materials and transformation. Tobacco plants (Nicotiana tabacum L. var. K326) were used for all the tests and genetic transformations described herein. Wild-type or transgenic seeds were germinated on Murashige and Skoog (MS) plates. For quantitative RT-PCR, germinated small seedlings were transferred onto larger MS plates and grown vertically until two weeks old before treated with 0.1% DMSO (control) or 100 μM MeJA. For TLC and GC-MS analysis, germinated seedlings were transferred in soil and grown under normal condition till five weeks old before DMSO or MeJA treatment. Agrobacterium tumefaciens strain LBA4404 harboring each transgenic vector was used for genetic transformation of tobacco following the experiment procedure described previously (Horsch et al., 1985). At least eight T0 transgenic plants were confirmed by genomic DNA PCR and then self-pollinated to produce T1 generation. […]
RNA isolation and quantitative reverse transcription-PCR (RT-qPCR). […] The DNA-eliminated total RNA was then reverse-transcribed using QuantiTect reverse transcription kit (Qiagen). Quantitative PCR was conducted iTaq™ Universal SYBR® Green supermix (Bio-Rad Laboratories) on an CFX96™ Real-Time PCR detection system (Bio-Rad Laboratories). […]

[2] = system: Nicotiana tabacum L. var. K326; experiment: GC-MS quantification of nicotine in leaf of wild-type and transgenic tobacco; format: in vivo; conditions: five-week-old plants, DMSO or MeJA
Protocol: as §1
Gas chromatography-mass spectrometry (GC-MS). […] Nicotine concentration was measured on a Shimadzu GCMS QP2010 plus system with a protocol developed previously (Goossens et al., (2003); Zhang et al., (2012)). […]
To further quantify nicotine concentration for the comparison between transgenic lines and the wild-types, GC-MS analysis was applied with total alkaloids extracted from the leaf tissue of five-week-old wild-type or transgenic plants treated with DMSO (control) or MeJA. […]

[3] = system: Nicotiana tabacum L. var. K326; experiment: TLC assay for nicotine accumulation in leaves of T2 overexpression lines; format: in vivo; conditions: T2 transgenic plants, 5-week-old, constitutive or conditional overexpression
Protocol: Plant materials and transformation. Tobacco plants (Nicotiana tabacum L. var. K326) were used for all the tests and genetic transformations described herein. Wild-type or transgenic seeds were germinated on Murashige and Skoog (MS) plates. For quantitative RT-PCR, germinated small seedlings were transferred onto larger MS plates and grown vertically until two weeks old before treated with 0.1% DMSO (control) or 100 μM MeJA. For TLC and GC-MS analysis, germinated seedlings were transferred in soil and grown under normal condition till five weeks old before DMSO or MeJA treatment. […]
Each gene was put into three different expression constructs respectively under the control of three different promoters described above (FIG. 3A). […] For each construct, at least eight lines were confirmed to have the transgene stably integrated into the genome by genomic PCR, the intact structure of the transgene was validated and relative level of transgene expression measured by RT-PCR using gene specific primers as is standard practice. The level of nicotine was assessed by TLC analysis to quickly identify the transformants with higher nicotine accumulation than the wild-type. […] T1 lines were similarly self-pollinated and the resulting T2 plants analyzed. […]

## NtERF221: AP2/ERF family transcription factor transgene (CQ808982, SEQ ID NO: 1) overexpressed in tobacco K326
[1]
  JA-induced transcript accumulation of NtAO, NtODC, NtPMT, NtQPT, and NtQS versus wild-type: far greater; also recorded: greatly up-regulated
[2]
  nicotine concentration in the leaf, comparison among transgenic lines: highest nicotine concentration
[3]
  nicotine accumulation versus wild-type (TLC): significantly elevated nicotine accumulation
